The values that follow come from PubChem BioAssay AID330 (DTP/NCI, 2004).

The assay concerns P388 leukemia ip, CD2F1 mice, survival T/C. Description: NCI In Vivo Anticancer Drug Screen. Data for tumor model P388 Leukemia (intraperitoneal) in CD2F1 (CDF1) mice. The conditions noted are these: endpoint: median survival time, higher = longer survival. In outline: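 Mice carrying the transplanted tumor received test compound or vehicle. Survival was recorded in each group, and the value is the treated-group measurement divided by that of the vehicle-treated control group.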

The mark [1] stands for this setting: dose: 50.0 mg/kg/injection, schedule: Q01DX005 (ip), vehicle: saline with Tween-80.
The mark [2] stands for this setting: dose: 100.0 mg/kg/injection, schedule: Q01DX005 (ip), vehicle: saline with Tween-80.
Setting [3] is: dose: 200.0 mg/kg/injection, schedule: Q01DX005 (ip), vehicle: saline with Tween-80.
[4] abbreviates: dose: 50.0 mg/kg/injection, schedule: Q01DX009 (ip), vehicle: Klucel (hydroxypropylcellulose) (HPC).
Setting [5] is: dose: 100.0 mg/kg/injection, schedule: Q01DX009 (ip), vehicle: Klucel (hydroxypropylcellulose) (HPC).
Setting [6] is: dose: 200.0 mg/kg/injection, schedule: Q01DX009 (ip), vehicle: Klucel (hydroxypropylcellulose) (HPC).
Setting [7] is: dose: 60.0 mg/kg/injection, schedule: Q01DX005 (ip), vehicle: saline with Tween-80.
The mark [8] stands for this setting: dose: 120.0 mg/kg/injection, schedule: Q01DX005 (ip), vehicle: saline with Tween-80.
[9] abbreviates: dose: 240.0 mg/kg/injection, schedule: Q01DX005 (ip), vehicle: saline with Tween-80.
The mark [10] stands for this setting: dose: 15.0 mg/kg/injection, schedule: Q01DX005 (ip), vehicle: saline with Tween-80.
The mark [11] stands for this setting: dose: 30.0 mg/kg/injection, schedule: Q01DX005 (ip), vehicle: saline with Tween-80.
The mark [12] stands for this setting: dose: 50.0 mg/kg/injection, schedule: Q01DX005 (ip), vehicle: Klucel (hydroxypropylcellulose) (HPC).
Where [13] appears, read: dose: 100.0 mg/kg/injection, schedule: Q01DX005 (ip), vehicle: Klucel (hydroxypropylcellulose) (HPC).
The mark [14] stands for this setting: dose: 100.0 mg/kg/injection, schedule: Q01DX001 (ip), vehicle: Klucel (hydroxypropylcellulose) (HPC).

“And” between values parts separate entries of the source, which are not always exact repeats. Equal values may be shown once. Inconclusive results and toxic doses are left out.

`C=CCCN(c1ccc(C(=O)OCC)cc1)S(=O)(=O)c1ccc(C)cc1`: the T/C is, setting by setting: (dose: 25.0 mg/kg/injection, schedule: Q01DX009 (ip), vehicle: saline with Tween-80) 100 % of control; (dose: 50.0 mg/kg/injection, schedule: Q01DX009 (ip), vehicle: saline with Tween-80) 110 % of control; (dose: 100.0 mg/kg/injection, schedule: Q01DX009 (ip), vehicle: saline with Tween-80) 100 % of control; (dose: 200.0 mg/kg/injection, schedule: Q01DX009 (ip), vehicle: saline with Tween-80) 108 % of control.

For `COc1ccc(C(=O)NC[n+]2ccccc2)cc1`, the T/C (dose: 25.0 mg/kg/injection, schedule: Q04DX003 (ip), vehicle: saline) was 100 % of control; the T/C (dose: 50.0 mg/kg/injection, schedule: Q04DX003 (ip), vehicle: saline) was 100 % of control; the T/C (dose: 100.0 mg/kg/injection, schedule: Q04DX003 (ip), vehicle: saline) is 104 % of control.

Take `CN(C)C(=S)C(C)(C)C`: the T/C is, setting by setting: under setting [1], 111 % of control; under setting [2], 103 % of control; under setting [3], 106 % of control.

Consider `O=C1NC(=O)N(c2ccc([N+](=O)[O-])cc2)C1=O`, for which the T/C is 86 % of control under setting [4]; 89 % of control under setting [5]; 86 % of control (2×) and 93 % of control under setting [6].

As for `S=C(N/N=C/c1ccc2c(c1)OCO2)NC1CCCCC1`, the T/C was 111 % of control under setting [4], 111 % of control under setting [5] and 116 % of control under setting [6].

For the compound `Br/N=C1/C=CC=C/C1=N/Br`, the T/C (dose: 25.0 mg/kg/injection, schedule: Q01DX005 (ip), vehicle: saline) is 105 % of control and 108 % of control; the T/C (dose: 50.0 mg/kg/injection, schedule: Q01DX005 (ip), vehicle: saline) is 107 % of control and 110 % of control; the T/C (dose: 100.0 mg/kg/injection, schedule: Q01DX005 (ip), vehicle: saline) is 100 % of control and 107 % of control and 123 % of control; the T/C (dose: 200.0 mg/kg/injection, schedule: Q01DX005 (ip), vehicle: saline) was 98 % of control and 100 % of control and 106 % of control.

Regarding `ClCCN(CCN(CCCl)c1cccc2ccccc12)c1cccc2ccccc12`, the T/C runs as follows: (dose: 50.0 mg/kg/injection, schedule: Q04DX003 (ip), vehicle: Klucel (hydroxypropylcellulose) (HPC)) 104 % of control; (dose: 100.0 mg/kg/injection, schedule: Q04DX003 (ip), vehicle: Klucel (hydroxypropylcellulose) (HPC)) 103 % of control; (dose: 200.0 mg/kg/injection, schedule: Q04DX003 (ip), vehicle: Klucel (hydroxypropylcellulose) (HPC)) 107 % of control.

As to `O=C(/C(O)=C/c1ccccc1)c1ccccc1`, the T/C was 93 % of control (dose: 100.0 mg/kg/injection, schedule: Q04DX002 (ip), vehicle: saline with Tween-80); 92 % of control (dose: 200.0 mg/kg/injection, schedule: Q04DX002 (ip), vehicle: saline with Tween-80); 92 % of control (dose: 400.0 mg/kg/injection, schedule: Q04DX002 (ip), vehicle: saline with Tween-80).

As for `c1cc(NNc2cccc(-c3nn[nH]n3)c2)cc(-c2nn[nH]n2)c1`, the T/C reads like this: under setting [4], 95 % of control; under setting [5], 117 % of control; under setting [6], 113 % of control.

In the case of `CCOC(=O)Cc1ccc2c(c1)sc1nc(-c3ccc(OC)cc3)cn12`, the T/C by setting is: (dose: 50.0 mg/kg/injection, schedule: Q01DX009 (ip), vehicle: DMSO) 104 % of control; (dose: 100.0 mg/kg/injection, schedule: Q01DX009 (ip), vehicle: DMSO) 103 % of control; (dose: 200.0 mg/kg/injection, schedule: Q01DX009 (ip), vehicle: DMSO) 94 % of control.

`N#CCCN(CCC#N)c1ccc(CC2C(=O)N(c3cccc(S(=O)(=O)O)c3)N=C2C(=O)O)cc1` (centres undefined): the T/C under setting [7] was 93 % of control, the T/C under setting [8] is 96 % of control and the T/C under setting [9] was 95 % of control.

For the compound `NCCNC[Si](c1ccccc1)(c1ccccc1)c1ccccc1`, the T/C was 102 % of control under setting [10] and 102 % of control under setting [11].

On to `CCOC(=O)c1cc(NO)c(=O)c2ccc(OC)cc2c1`, for which the T/C by setting is: (dose: 25.0 mg/kg/injection, schedule: Q01DX005 (ip), vehicle: saline with Tween-80) 91 % of control; under setting [1], 90 % of control and 96 % of control; under setting [2], 89 % of control; under setting [3], 91 % of control.

Take `CCN(CC)Cc1c(O)ccc2c3c(c(=O)oc12)CCCC3`: the T/C reads like this: (dose: 8.0 mg/kg/injection, schedule: Q01DX009 (ip), vehicle: Klucel (hydroxypropylcellulose) (HPC)) 101 % of control; (dose: 16.0 mg/kg/injection, schedule: Q01DX009 (ip), vehicle: Klucel (hydroxypropylcellulose) (HPC)) 102 % of control; (dose: 32.0 mg/kg/injection, schedule: Q01DX009 (ip), vehicle: Klucel (hydroxypropylcellulose) (HPC)) 101 % of control.

Regarding `CN(Cc1cnc2nc(N)nc(N)c2n1)c1ccc(C(=O)NC(CCC(=O)OCc2c(Cl)cccc2Cl)C(=O)OCc2c(Cl)cccc2Cl)cc1` (centres undefined), the T/C was 168 % of control (dose: 3.75 mg/kg/injection, schedule: Q01DX005 (ip), vehicle: saline with Tween-80); 207 % of control and 237 % of control (dose: 7.5 mg/kg/injection, schedule: Q01DX005 (ip), vehicle: saline with Tween-80); 105 % of control and 92 % of control under setting [10]; 87 % of control under setting [11].

Take `O=C(Oc1ccc[nH]c1=O)c1ccccc1`: the T/C is 108 % of control and 98 % of control (dose: 37.5 mg/kg/injection, schedule: Q01DX009 (ip), vehicle: saline); 101 % of control and 105 % of control (dose: 75.0 mg/kg/injection, schedule: Q01DX009 (ip), vehicle: saline); 107 % of control (dose: 150.0 mg/kg/injection, schedule: Q01DX009 (ip), vehicle: saline); 101 % of control and 110 % of control (dose: 300.0 mg/kg/injection, schedule: Q01DX009 (ip), vehicle: saline); 101 % of control and 107 % of control (dose: 600.0 mg/kg/injection, schedule: Q01DX009 (ip), vehicle: saline).

As for `CCCC(NC(=O)OCc1ccccc1)C(=O)NC(Cc1c[nH]c2ccccc12)C(=O)O` (centres undefined), the T/C reads like this: under setting [12], 109 % of control; under setting [13], 108 % of control; (dose: 200.0 mg/kg/injection, schedule: Q01DX005 (ip), vehicle: Klucel (hydroxypropylcellulose) (HPC)) 94 % of control.

Consider `CC/C=C(\CC)C(=O)O`, for which the T/C (dose: 50.0 mg/kg/injection, schedule: Q01DX009 (ip), vehicle: saline) is 90 % of control; the T/C (dose: 100.0 mg/kg/injection, schedule: Q01DX009 (ip), vehicle: saline) was 100 % of control; the T/C (dose: 200.0 mg/kg/injection, schedule: Q01DX009 (ip), vehicle: saline) was 102 % of control.

Regarding `COC(=O)CCCC1=NCCS1`, the T/C by setting is: under setting [1], 103 % of control; under setting [2], 103 % of control; under setting [3], 112 % of control.

Regarding `Cc1ccc(N=CN(C)C=Nc2ccc(C)cc2C)c(C)c1`, the T/C reads like this: (dose: 50.0 mg/kg/injection, schedule: Q01DX009 (ip), vehicle: suspension in saline) 104 % of control; (dose: 100.0 mg/kg/injection, schedule: Q01DX009 (ip), vehicle: suspension in saline) 113 % of control; (dose: 200.0 mg/kg/injection, schedule: Q01DX009 (ip), vehicle: suspension in saline) 107 % of control.

Turning to `Br[CH](Br)[Hg][c]1ccccc1`, the T/C was 93 % of control under setting [14] and 96 % of control (dose: 200.0 mg/kg/injection, schedule: Q01DX001 (ip), vehicle: Klucel (hydroxypropylcellulose) (HPC)).

Consider `COc1cc(C(Nc2ncccn2)c2cc3c(cc2O)OCO3)cc(OC)c1O` (centres undefined), for which the T/C is, setting by setting: under setting [7], 105 % of control; under setting [8], 90 % of control; under setting [9], 90 % of control.

Take `Clc1ccc(-n2ccc(=N/N=C/c3ccc(Cl)c(Cl)c3)cc2)cc1`: the T/C runs as follows: (dose: 25.0 mg/kg/injection, schedule: Q01DX001 (ip), vehicle: Klucel (hydroxypropylcellulose) (HPC)) 100 % of control; (dose: 50.0 mg/kg/injection, schedule: Q01DX001 (ip), vehicle: Klucel (hydroxypropylcellulose) (HPC)) 100 % of control; under setting [14], 100 % of control and 96 % of control.

`CC1(C2CCC3(C)OC3C2)CO1` (centres undefined): the T/C was 100 % of control under setting [1], 100 % of control under setting [2] and 100 % of control under setting [3].

With `CC(C)(C)OC(=O)N/N=C\c1ccnc2ccccc12`, the T/C is 93 % of control (dose: 25.0 mg/kg/injection, schedule: Q01DX005 (ip), vehicle: Klucel (hydroxypropylcellulose) (HPC)); 96 % of control under setting [12]; 93 % of control under setting [13].
